The results in this text go back to patent publication US20240124427A1, “HYDROXYHETEROCYCLOALKANE-CARBAMOYL DERIVATIVES” (Idorsia Pharmaceuticals Ltd, priority 2021, published 2024).

One may read the IC50 as the point on the concentration scale where inhibition reaches its midpoint.

Chain of human Gal-3 (hGal-3) (P17931 whole entry): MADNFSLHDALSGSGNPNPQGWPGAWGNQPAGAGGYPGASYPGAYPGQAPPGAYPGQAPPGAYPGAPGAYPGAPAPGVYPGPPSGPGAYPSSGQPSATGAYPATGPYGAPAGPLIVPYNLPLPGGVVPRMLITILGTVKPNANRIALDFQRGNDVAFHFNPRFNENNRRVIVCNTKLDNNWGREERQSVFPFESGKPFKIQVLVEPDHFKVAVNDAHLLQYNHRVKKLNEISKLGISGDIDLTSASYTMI

The assay deals with human Gal-3 (hGal-3) (Homo sapiens (Human), UniProt P17931). In words: Competitive binding assay: biotinylated hGal-3 binding to microplate-adsorbed asialofetuin (ASF). To be noted: Activity on hGal-3; mean values of several measurements; mixture of diastereomers measured where not separated. The gist of the method:
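Spectrophotometric read-out using streptavidin-peroxidase and ABTS quantifies how much biotin-hGal-3 remains bound to microplate asialofetuin after 3 h at 4 °C with compound present. Values are means of repeated IC50 determinations.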
For `CO[C@@H]1[C@@H](n2cc(-c3cc(F)c(F)c(F)c3)nn2)[C@@H](O)[C@@H](CO)O[C@H]1C(=O)N(c1cc(C)cc(Br)c1)[C@H]1COC[C@@H]1O` [Example 8, (2R,3R,4S,5R,6R)-N-(3-bromo-5-methylphenyl)-5-hydroxy-6-(hydroxymethyl)-N-((3S,4R)-4-hydroxytetrahydrofuran-3-yl)-3-methoxy-4-(4-(3,4,5-trifluorophenyl)-1H-1,2,3-triazol-1-yl)tetrahydro-2H-pyran-2-carboxamide], the IC50 was 77 nM.

Turning to `CO[C@@H]1[C@@H](n2cc(-c3ccc(Cl)c(Cl)c3)nn2)[C@@H](O)[C@@H](CO)O[C@H]1C(=O)N(c1cc(Br)cc(Br)c1)[C@H]1COC[C@@H]1O` [Example 27, (2R,3R,4S,5R,6R)-N-(3,5-dibromophenyl)-4-(4-(3,4-dichlorophenyl)-1H-1,2,3-triazol-1-yl)-5-hydroxy-6-(hydroxymethyl)-N-((3S,4R)-4-hydroxytetrahydrofuran-3-yl)-3-methoxytetrahydro-2H-pyran-2-carboxamide], the IC50 turned out to be 89 nM.

As for `CO[C@@H]1[C@@H](n2cc(-c3cc(F)c(F)c(F)c3)nn2)[C@@H](O)[C@@H](CO)O[C@H]1C(=O)N(c1cc(C)cc(Br)c1)[C@@H]1CN(C(C)=O)C[C@H]1O` [Example 79, (2R,3R,4S,5R,6R)-N-((3R,4R)-1-acetyl-4-hydroxypyrrolidin-3-yl)-N-(3-bromo-5-methylphenyl)-5-hydroxy-6-(hydroxymethyl)-3-methoxy-4-(4-(3,4,5-trifluorophenyl)-1H-1,2,3-triazol-1-yl)tetrahydro-2H-pyran-2-carboxamide], the concentration for half-maximal inhibition (IC50) came to 76 nM.

For the compound `CO[C@@H]1[C@@H](n2cc(-c3cc(F)c(C)c(F)c3)nn2)[C@@H](O)[C@@H](CO)O[C@H]1C(=O)N(c1cc(C)cc(Br)c1)[C@H]1CN(C(C)=O)C[C@@H]1O` [Example 75, (2R,3R,4S,5R,6R)-N-((3S,4S)-1-acetyl-4-hydroxypyrrolidin-3-yl)-N-(3-bromo-5-methylphenyl)-4-(4-(3,5-difluoro-4-methylphenyl)-1H-1,2,3-triazol-1-yl)-5-hydroxy-6-(hydroxymethyl)-3-methoxytetrahydro-2H-pyran-2-carboxamide], the concentration for half-maximal inhibition (IC50) was found to be 22 nM.

For the compound `CO[C@@H]1[C@@H](n2cc(-c3cc(F)c(F)c(F)c3)nn2)[C@@H](O)[C@@H](CO)O[C@H]1C(=O)N(c1cc(Br)cc(C#N)c1)[C@H]1CN(C=O)C[C@@H]1O` [Example 89, (2R,3R,4S,5R,6R)-N-(3-bromo-5-cyanophenyl)-N-((3S,4S)-1-formyl-4-hydroxypyrrolidin-3-yl)-5-hydroxy-6-(hydroxymethyl)-3-methoxy-4-(4-(3,4,5-trifluorophenyl)-1H-1,2,3-triazol-1-yl)tetrahydro-2H-pyran-2-carboxamide], the IC50 came to 38 nM.

With `CO[C@@H]1[C@@H](n2cc(-c3cc(F)c(F)c(F)c3)nn2)[C@@H](O)[C@@H](CO)O[C@H]1C(=O)N(c1cc(Cl)cc(Cl)c1)[C@H]1CN(C(C)=O)C[C@@H]1O` [Example 71, (2R,3R,4S,5R,6R)-N-((3S,4S)-1-acetyl-4-hydroxypyrrolidin-3-yl)-N-(3,5-dichlorophenyl)-5-hydroxy-6-(hydroxymethyl)-3-methoxy-4-(4-(3,4,5-trifluorophenyl)-1H-1,2,3-triazol-1-yl)tetrahydro-2H-pyran-2-carboxamide], the half-maximal inhibitory concentration (IC50) was 36 nM.

Regarding `CO[C@@H]1[C@@H](n2cc(-c3cc(F)c(F)c(F)c3)nn2)[C@@H](O)[C@@H](CO)O[C@H]1C(=O)N(c1cc(Cl)cc(Cl)c1)[C@@H]1COCC[C@H]1O` [Example 107, (2R,3R,4S,5R,6R)-N-(3,5-dichlorophenyl)-5-hydroxy-6-(hydroxymethyl)-N-((3R,4R)-4-hydroxytetrahydro-2H-pyran-3-yl)-3-methoxy-4-(4-(3,4,5-trifluorophenyl)-1H-1,2,3-triazol-1-yl)tetrahydro-2H-pyran-2-carboxamide], the half-maximal inhibitory concentration (IC50) amounted to 217 nM.

Take `CO[C@@H]1[C@@H](n2cc(-c3ccc(C)c(F)c3F)nn2)[C@@H](O)[C@@H](CO)O[C@H]1C(=O)N(c1cc(C)cc(Br)c1)[C@H]1CNC[C@@H]1O` [Example 64, (2R,3R,4S,5R,6R)-N-(3-bromo-5-methylphenyl)-4-(4-(2,3-difluoro-4-methylphenyl)-1H-1,2,3-triazol-1-yl)-5-hydroxy-6-(hydroxymethyl)-N-((3S,4S)-4-hydroxypyrrolidin-3-yl)-3-methoxytetrahydro-2H-pyran-2-carboxamide]: the IC50 turned out to be 25 nM.

For the compound `CO[C@@H]1[C@@H](n2cc(-c3cc(F)c(F)c(F)c3)nn2)[C@@H](O)[C@@H](CO)O[C@H]1C(=O)N(c1cc(Br)cc(C#N)c1)[C@H]1CCOC[C@@H]1O` [Example 101, (2R,3R,4S,5R,6R)-N-(3-bromo-5-cyanophenyl)-5-hydroxy-6-(hydroxymethyl)-N-((3R,4S)-3-hydroxytetrahydro-2H-pyran-4-yl)-3-methoxy-4-(4-(3,4,5-trifluorophenyl)-1H-1,2,3-triazol-1-yl)tetrahydro-2H-pyran-2-carboxamide], the 50% inhibitory concentration (IC50) is 14 nM.

For `CO[C@@H]1[C@@H](n2cc(-c3ccc(Cl)c(Cl)c3)nn2)[C@@H](O)[C@@H](CO)O[C@H]1C(=O)N(c1cc(Br)cc(C#N)c1)[C@@H]1COC[C@H]1O` [Example 57, (2R,3R,4S,5R,6R)-N-(3-bromo-5-cyanophenyl)-4-(4-(3,4-dichlorophenyl)-1H-1,2,3-triazol-1-yl)-5-hydroxy-6-(hydroxymethyl)-N-((3R,4S)-4-hydroxytetrahydrofuran-3-yl)-3-methoxytetrahydro-2H-pyran-2-carboxamide], the IC50 came to 151 nM.

In the case of `CO[C@@H]1[C@@H](n2cc(-c3cc(F)c(Cl)c(F)c3)nn2)[C@@H](O)[C@@H](CO)O[C@H]1C(=O)N(c1cc(C)cc(Br)c1)[C@H]1CN(C(C)=O)C[C@@H]1O` [Example 76, (2R,3R,4S,5R,6R)-N-((3S,4S)-1-acetyl-4-hydroxypyrrolidin-3-yl)-N-(3-bromo-5-methylphenyl)-4-(4-(4-chloro-3,5-difluorophenyl)-1H-1,2,3-triazol-1-yl)-5-hydroxy-6-(hydroxymethyl)-3-methoxytetrahydro-2H-pyran-2-carboxamide], the 50% inhibitory concentration (IC50) is 37 nM.

As for `CO[C@@H]1[C@@H](n2cc(-c3cc(F)c(F)c(F)c3)nn2)[C@@H](O)[C@@H](CO)O[C@H]1C(=O)N(c1cc(Cl)cc(C#N)c1)[C@@H]1COC[C@H]1O` [Example 34, (2R,3R,4S,5R,6R)-N-(3-chloro-5-cyanophenyl)-5-hydroxy-6-(hydroxymethyl)-N-((3R,4S)-4-hydroxytetrahydrofuran-3-yl)-3-methoxy-4-(4-(3,4,5-trifluorophenyl)-1H-1,2,3-triazol-1-yl)tetrahydro-2H-pyran-2-carboxamide], the half-maximal inhibitory concentration (IC50) came to 102 nM.

For the compound `CO[C@@H]1[C@@H](n2cc(-c3cc(F)c(F)c(F)c3)nn2)[C@@H](O)[C@@H](CO)O[C@H]1C(=O)N(c1cc(C)cc(Br)c1)[C@H]1CCOC[C@@H]1O` [Example 102, (2R,3R,4S,5R,6R)-N-(3-bromo-5-methylphenyl)-5-hydroxy-6-(hydroxymethyl)-N-((3R,4S)-3-hydroxytetrahydro-2H-pyran-4-yl)-3-methoxy-4-(4-(3,4,5-trifluorophenyl)-1H-1,2,3-triazol-1-yl)tetrahydro-2H-pyran-2-carboxamide], the IC50 turned out to be 14 nM.

Turning to `CO[C@@H]1[C@@H](n2cc(-c3cc(F)c(Cl)c(F)c3)nn2)[C@@H](O)[C@@H](CO)O[C@H]1C(=O)N(c1cc(C)cc(Br)c1)[C@@H]1CN(C(C)=O)C[C@H]1O` [Example 83, (2R,3R,4S,5R,6R)-N-((3R,4R)-1-acetyl-4-hydroxypyrrolidin-3-yl)-N-(3-bromo-5-methylphenyl)-4-(4-(4-chloro-3,5-difluorophenyl)-1H-1,2,3-triazol-1-yl)-5-hydroxy-6-(hydroxymethyl)-3-methoxytetrahydro-2H-pyran-2-carboxamide], the IC50 was 67 nM.

Turning to `CO[C@@H]1[C@@H](n2cc(-c3ccc(C)c(F)c3F)nn2)[C@@H](O)[C@@H](CO)O[C@H]1C(=O)N(c1cc(Cl)cc(Cl)c1)[C@H]1CNC[C@@H]1O` [Example 63, (2R,3R,4S,5R,6R)-N-(3,5-dichlorophenyl)-4-(4-(2,3-difluoro-4-methylphenyl)-1H-1,2,3-triazol-1-yl)-5-hydroxy-6-(hydroxymethyl)-N-((3S,4S)-4-hydroxypyrrolidin-3-yl)-3-methoxytetrahydro-2H-pyran-2-carboxamide], the 50% inhibitory concentration (IC50) is 24 nM.

For the compound `CO[C@@H]1[C@@H](n2cc(-c3ccc(Cl)c(Cl)c3)nn2)[C@@H](O)[C@@H](CO)O[C@H]1C(=O)N(c1cc(Br)cc(C#N)c1)[C@H]1COC[C@@H]1O` [Example 28, (2R,3R,4S,5R,6R)-N-(3-bromo-5-cyanophenyl)-4-(4-(3,4-dichlorophenyl)-1H-1,2,3-triazol-1-yl)-5-hydroxy-6-(hydroxymethyl)-N-((3S,4R)-4-hydroxytetrahydrofuran-3-yl)-3-methoxytetrahydro-2H-pyran-2-carboxamide], the IC50 is 115 nM.

Take `CO[C@@H]1[C@@H](n2cc(-c3ccc(C)c(F)c3F)nn2)[C@@H](O)[C@@H](CO)O[C@H]1C(=O)N(c1cc(Br)cc(C#N)c1)[C@@H]1COC[C@H]1O` [Example 49, (2R,3R,4S,5R,6R)-N-(3-bromo-5-cyanophenyl)-4-(4-(2,3-difluoro-4-methylphenyl)-1H-1,2,3-triazol-1-yl)-5-hydroxy-6-(hydroxymethyl)-N-((3R,4S)-4-hydroxytetrahydrofuran-3-yl)-3-methoxytetrahydro-2H-pyran-2-carboxamide]: the IC50 amounted to 18 nM.

For the compound `CO[C@@H]1[C@@H](n2cc(-c3cc(F)c(F)c(F)c3)nn2)[C@@H](O)[C@@H](CO)O[C@H]1C(=O)N(c1cc(Cl)cc(Cl)c1)[C@@H]1CCOC[C@H]1O` [Example 103, (2R,3R,4S,5R,6R)-N-(3,5-dichlorophenyl)-5-hydroxy-6-(hydroxymethyl)-N-((3S,4R)-3-hydroxytetrahydro-2H-pyran-4-yl)-3-methoxy-4-(4-(3,4,5-trifluorophenyl)-1H-1,2,3-triazol-1-yl)tetrahydro-2H-pyran-2-carboxamide], the 50% inhibitory concentration (IC50) amounted to 299 nM.
